Laboratory results reported in US12201684B2, “Compositions for stimulation of mammalian innate immune resistance to pathogens” (priority 2009, dated 2025).

Columns and labels:
[1] = cited from earlier work
[2] = tested on: P. aeruginosa strain PA103; assay: In vivo inhalational P. aeruginosa challenge, survival; settings: wild type mice; aerosolized treatment 24 h prior to challenge
[3] = tested on: neutrophils and macrophages in BAL fluid; assay: Bronchoalveolar lavage fluid leukocyte counts after aerosolized TLR ligands; format: in vivo, mice

**Q.** For `CCC(=O)O[C@]1(C(=O)SCF)[C@H](C)C[C@H]2[C@@H]3C[C@H](F)C4=CC(=O)C=C[C@]4(C)[C@@]3(F)[C@@H](O)C[C@@]21C` [Fluticasone propionate, S-(fluromethyl)6α,9-difluoro-11β-17-dihydroxy-16α-methyl-3-oxoandrosta-1,4-diene-17β-carbothioate, 17-propionate], which “solubility in dimethyl sulfoxide and dimethylformamide” value [1] is on record?
**A.** freely soluble

**Q.** And the “solubility in methanol and 95% ethanol” value [1]?
**A.** slightly soluble

**Q.** What about the solubility in water [1] of the same molecule?
**A.** practically insoluble

**Q.** Which “protection against lethal P. aeruginosa pneumonia (survival)” value [2] does the source give for `CC(C)Cn1cnc2c(N)nc3ccccc3c21` [imiquimod, 1-(2-methylpropyl)-1H-imidazo[4,5-c]quinolin-4-amine] here?
**A.** trend towards protection

**Q.** What about the “neutrophil infiltration above a certain ligand concentration” value ([3]; BAL 24 h after treatment, highest concentrations tested) of the same molecule?
**A.** reduction in neutrophil infiltration

**Q.** For monophosphoryl lipid A-synthetic [MPLA], which “protection against lethal P. aeruginosa pneumonia (survival)” value [2] is on record?
**A.** non-significant trend towards increased mortality

**Q.** With poly(I:C) as the molecule, how does the “influx of macrophages on BAL” value ([3]; 24 h after treatment) read?
**A.** significant influx
